Source: patent US12559506B2, “Indazole based compounds and associated methods of use” (Arvinas Operations, Inc., priority 2021, dated 2026)
Like-named read-outs stand apart in the source and are kept apart here.

Experiments:
G2019S LRRK2 = molecular target: T1, G2019S LRRK2 (Homo sapiens, UniProt Q5S007, G2019S); experiment: LRRK2 degradation assay, HiBit-tagged G2019S LRRK2 expressed from plasmid in HEK293 cells (Nano-Glo Dual-Luciferase); format: cell-based; settings: 24 hours
T1 construct: expressed in transfected cells; host or cells: HEK293 (ATCC CRL-1573), transient transfection, mammalian expression vector with ubiquitin promoter
T1 sequence (Q5S007 whole entry G2019S): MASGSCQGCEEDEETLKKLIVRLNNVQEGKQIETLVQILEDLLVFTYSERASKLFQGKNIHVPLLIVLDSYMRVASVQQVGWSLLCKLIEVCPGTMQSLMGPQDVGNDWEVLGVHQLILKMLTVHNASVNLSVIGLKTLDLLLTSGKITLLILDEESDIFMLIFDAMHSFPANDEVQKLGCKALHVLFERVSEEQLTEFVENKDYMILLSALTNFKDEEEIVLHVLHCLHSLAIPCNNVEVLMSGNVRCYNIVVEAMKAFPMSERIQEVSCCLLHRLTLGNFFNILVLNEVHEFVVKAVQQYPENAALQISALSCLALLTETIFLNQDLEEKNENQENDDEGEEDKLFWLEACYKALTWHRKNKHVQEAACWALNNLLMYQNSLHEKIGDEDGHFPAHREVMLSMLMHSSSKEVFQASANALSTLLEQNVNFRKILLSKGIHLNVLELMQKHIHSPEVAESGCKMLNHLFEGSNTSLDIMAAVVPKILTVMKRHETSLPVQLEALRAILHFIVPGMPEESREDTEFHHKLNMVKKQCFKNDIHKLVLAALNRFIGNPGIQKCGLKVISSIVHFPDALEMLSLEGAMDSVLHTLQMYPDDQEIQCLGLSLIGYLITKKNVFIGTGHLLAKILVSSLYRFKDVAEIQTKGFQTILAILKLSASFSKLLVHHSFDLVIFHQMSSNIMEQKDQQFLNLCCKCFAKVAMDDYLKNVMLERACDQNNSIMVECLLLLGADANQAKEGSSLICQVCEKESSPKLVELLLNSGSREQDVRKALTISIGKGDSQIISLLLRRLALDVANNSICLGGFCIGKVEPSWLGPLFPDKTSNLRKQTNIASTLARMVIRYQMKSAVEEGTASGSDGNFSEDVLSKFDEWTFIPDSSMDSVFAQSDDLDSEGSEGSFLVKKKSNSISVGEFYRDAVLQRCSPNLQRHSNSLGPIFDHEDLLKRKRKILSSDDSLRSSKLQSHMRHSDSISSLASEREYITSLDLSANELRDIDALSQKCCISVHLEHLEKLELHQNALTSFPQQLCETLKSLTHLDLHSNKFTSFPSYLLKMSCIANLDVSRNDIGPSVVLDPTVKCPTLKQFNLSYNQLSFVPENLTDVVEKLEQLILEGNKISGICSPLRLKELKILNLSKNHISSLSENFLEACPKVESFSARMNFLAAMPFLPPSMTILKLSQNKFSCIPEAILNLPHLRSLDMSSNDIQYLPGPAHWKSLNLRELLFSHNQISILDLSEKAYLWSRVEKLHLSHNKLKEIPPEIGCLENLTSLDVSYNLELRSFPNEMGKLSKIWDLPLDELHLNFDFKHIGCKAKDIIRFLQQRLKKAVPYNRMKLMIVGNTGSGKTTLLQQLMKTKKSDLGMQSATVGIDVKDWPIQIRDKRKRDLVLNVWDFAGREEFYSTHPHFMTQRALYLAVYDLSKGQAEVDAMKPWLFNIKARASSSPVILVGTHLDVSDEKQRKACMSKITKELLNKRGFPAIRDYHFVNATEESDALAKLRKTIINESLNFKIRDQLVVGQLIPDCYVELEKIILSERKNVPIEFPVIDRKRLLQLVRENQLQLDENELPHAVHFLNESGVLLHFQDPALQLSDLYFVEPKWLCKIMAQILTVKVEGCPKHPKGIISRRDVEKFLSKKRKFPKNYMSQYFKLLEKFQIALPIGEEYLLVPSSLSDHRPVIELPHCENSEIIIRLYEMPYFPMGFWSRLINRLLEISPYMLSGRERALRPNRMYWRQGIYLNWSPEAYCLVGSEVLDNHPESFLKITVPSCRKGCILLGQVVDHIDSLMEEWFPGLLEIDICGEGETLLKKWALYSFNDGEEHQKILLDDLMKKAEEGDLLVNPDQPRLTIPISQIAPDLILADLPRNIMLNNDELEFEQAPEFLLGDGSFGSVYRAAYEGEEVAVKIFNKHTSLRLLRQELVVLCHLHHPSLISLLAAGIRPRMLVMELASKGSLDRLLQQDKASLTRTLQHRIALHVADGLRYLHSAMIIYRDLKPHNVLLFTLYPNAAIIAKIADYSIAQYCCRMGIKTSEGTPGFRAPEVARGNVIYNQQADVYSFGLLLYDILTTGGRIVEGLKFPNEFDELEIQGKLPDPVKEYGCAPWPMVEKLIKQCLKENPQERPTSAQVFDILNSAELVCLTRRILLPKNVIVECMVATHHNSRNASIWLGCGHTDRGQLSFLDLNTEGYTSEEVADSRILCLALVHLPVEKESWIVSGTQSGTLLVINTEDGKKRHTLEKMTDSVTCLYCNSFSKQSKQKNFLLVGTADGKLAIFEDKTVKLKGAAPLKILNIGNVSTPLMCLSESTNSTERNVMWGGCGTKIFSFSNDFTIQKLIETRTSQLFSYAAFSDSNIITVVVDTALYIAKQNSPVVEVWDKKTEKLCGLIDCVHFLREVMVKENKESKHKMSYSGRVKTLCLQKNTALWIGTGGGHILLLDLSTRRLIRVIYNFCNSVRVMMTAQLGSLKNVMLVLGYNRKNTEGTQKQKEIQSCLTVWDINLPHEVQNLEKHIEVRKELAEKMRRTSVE
Summary of the method: (§1)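 HEK293 cells co-transfected with C-terminal HiBiT-tagged LRRK2 (WT or G2019S, ubiquitin promoter) and firefly luciferase, then dosed 24 h at 37 °C. HiBiT/firefly ratio normalized to DMSO median; DC50 and Dmax from per-plate curve fits, six replicates over two days.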

wildtype LRRK2 = molecular target: T2, wildtype LRRK2 (Homo sapiens, UniProt Q5S007); experiment: LRRK2 degradation assay, HiBit-tagged wildtype LRRK2 expressed from plasmid in HEK293 cells (Nano-Glo Dual-Luciferase); format: cell-based; settings: 24 hours; for Dmax: read-out: **WT Dmax (%); for DC50: read-out: *WT DC50
T2 construct: expressed in transfected cells; host or cells: HEK293 (ATCC CRL-1573), transient transfection, mammalian expression vector with ubiquitin promoter
T2 sequence (Q5S007 whole entry): as the sequence (Q5S007 whole entry G2019S) above, with S2019G counted along it
Summary of the method: as §1

[1] = HiBit-tagged G2019S LRRK2 in HEK293 cells
[2] = HiBit-tagged wildtype LRRK2 in HEK293 cells
[3] = HiBit-tagged G2019S LRRK2, HEK293 cells
[4] = HiBit-tagged wildtype LRRK2, HEK293 cells

DC50 (G2019S LRRK2; [1]) | Dmax (G2019S LRRK2; [1]) | Dmax (wildtype LRRK2; [2]) | DC50 (wildtype LRRK2; [2]) | DC50 (G2019S LRRK2; [3]) | Dmax (G2019S LRRK2; [3]) | Dmax (wildtype LRRK2; [4]) | DC50 (wildtype LRRK2; [4]) | SMILES
< 10 nM | < 50% | 50 to 70% | < 10 nM | – | – | – | – | C[C@H]1CN(c2cc(-c3n[nH]c4cc(F)c(OC5(C)CC5)cc34)ncn2)CCN1CC1CCN(CC2CCN(c3ccc4c(c3)C(=O)N(C3CCC(=O)NC3=O)C4=O)CC2)CC1 (stereo partly drawn) [Compound 71, 2-(2,6-dioxopiperidin-3-yl)-5-{4-[(4-{[(2S)-4-{6-[6-fluoro-5-(1-methylcyclopropoxy)-1H-indazol-3-yl]pyrimidin-4-yl}-2-methylpiperazin-1-yl]methyl}piperidin-1-yl)methyl]piperidin-1-yl}-2,3-dihydro-1H-isoindole-1,3-dione]
– | – | – | – | 10 to 50 nM | 50 to 70% | 50 to 70% | 10 to 50 nM | CC1(Oc2ccc3[nH]nc(-c4ccnc(N5CC6(CN(CC7CCN(CC8CCN(c9ccc%10c(c9)C(=O)N(C9CCC(=O)NC9=O)C%10=O)CC8)CC7)C6)C5)c4)c3c2)CC1 (stereo not shown) [Compound 161, 2-(2,6-dioxo-3-piperidyl)-5-[4-[[4-[[2-[4-[5-(1-methylcyclopropoxy)-1H-indazol-3-yl]-2-pyridyl]-2,6-diazaspiro[3.3]heptan-6-yl]methyl]-1-piperidyl]methyl]-1-piperidyl]isoindoline-1,3-dione]
< 10 nM | 50 to 70% | 50 to 70% | < 10 nM | – | – | – | – | CC1(Oc2ccc3[nH]nc(-c4ccnc(N5CC(CN6CCN(CC7CCN(c8ccc9c(c8)C(=O)N(C8CCC(=O)NC8=O)C9=O)CC7)CC6)C5)c4)c3c2)CC1 (stereo not shown) [Compound 128, 2-(2,6-dioxopiperidin-3-yl)-5-[4-({4-[(1-{4-[5-(1-methylcyclopropoxy)-1H-indazol-3-yl]pyridin-2-yl}azetidin-3-yl)methyl]piperazin-1-yl}methyl)piperidin-1-yl]-2,3-dihydro-1H-isoindole-1,3-dione]
10 to 50 nM | 50 to 70% | < 50% | 10 to 50 nM | – | – | – | – | CC1(Oc2ccc3[nH]nc(-c4cc(N5CCN(CC6CCN(CCCCNc7cccc8c7CN(C7CCC(=O)NC7=O)C8=O)CC6)CC5)ncn4)c3c2)CC1 (stereo not shown) [Compound 143, 3-[4-[4-[4-[[4-[6-[5-(1-methylcyclopropoxy)-1H-indazol-3-yl]pyrimidin-4-yl]piperazin-1-yl]methyl]-1-piperidyl]butylamino]-1-oxo-isoindolin-2-yl]piperidine-2,6-dione]
< 10 nM | 50 to 70% | 50 to 70% | < 10 nM | – | – | – | – | CC1(Oc2ccc3n[nH]c(-c4cc(N5CCC(CN6CCN(CC7(F)CN(c8ccc9c(c8)C(=O)N(C8CCC(=O)NC8=O)C9=O)C7)CC6)CC5)ncn4)c3c2)CC1 (stereo not shown) [Compound 134, 2-(2,6-dioxo-3-piperidyl)-5-[3-fluoro-3-[[4-[[1-[6-[5-(1-methylcyclopropoxy)-2H-indazol-3-yl]pyrimidin-4-yl]-4-piperidyl]methyl]piperazin-1-yl]methyl]azetidin-1-yl]isoindoline-1,3-dione]
< 10 nM | 50 to 70% | < 50% | < 10 nM | – | – | – | – | C[C@H]1CN(c2cc(-c3[nH]nc4ccc(OC5(C)CC5)cc34)ncn2)CCN1CC1CCN(CC2CCN(c3cccc4c3CN(C3CCC(=O)NC3=O)C4=O)CC2)CC1 (stereo partly drawn) [Compound 145, 3-[4-[4-[[4-[[(2S)-2-methyl-4-[6-[5-(1-methylcyclopropoxy)-2H-indazol-3-yl]pyrimidin-4-yl]piperazin-1-yl]methyl]-1-piperidyl]methyl]-1-piperidyl]-1-oxo-isoindolin-2-yl]piperidine-2,6-dione]
– | – | – | – | 10 to 50 nM | < 50% | < 50% | 10 to 50 nM | CC1(Oc2ccc3[nH]nc(-c4ccnc(N5CC6(CCN6CC6CCN(CC7CCN(c8ccc9c(c8)C(=O)N(C8CCC(=O)NC8=O)C9=O)CC7)CC6)C5)c4)c3c2)CC1 (stereo not shown) [Compound 163, 2-(2,6-dioxo-3-piperidyl)-5-[4-[[4-[[6-[4-[5-(1-methylcyclopropoxy)-1H-indazol-3-yl]-2-pyridyl]-1,6-diazaspiro[3.3]heptan-1-yl]methyl]-1-piperidyl]methyl]-1-piperidyl]isoindoline-1,3-dione]
< 10 nM | < 50% | < 50% | < 10 nM | – | – | – | – | CC1(Oc2ccc3[nH]nc(-c4cc(N5CCC(O[C@H]6CCN(CC7CCN(c8ccc9c(c8)C(=O)N(C8CCC(=O)NC8=O)C9=O)CC7)C6)CC5)ncn4)c3c2)CC1 (stereo partly drawn) [Compound 117, 2-(2,6-dioxopiperidin-3-yl)-5-(4-{[(3S)-3-[(1-{6-[5-(1-methylcyclopropoxy)-1H-indazol-3-yl]pyrimidin-4-yl}piperidin-4-yl)oxy]pyrrolidin-1-yl]methyl}piperidin-1-yl)-2,3-dihydro-1H-isoindole-1,3-dione]
< 10 nM | 50 to 70% | 50 to 70% | < 10 nM | – | – | – | – | C[C@H]1CN(c2cc(-c3[nH]nc4ccc(OC5(C)CC5)cc34)ncn2)CCN1CC1CCN(CC2CCN(c3ccc4c(c3)CN(C3CCC(=O)NC3=O)C4=O)CC2)CC1 (stereo partly drawn) [Compound 109, 3-[5-[4-[[4-[[(2S)-2-methyl-4-[6-[5-(1-methylcyclopropoxy)-2H-indazol-3-yl]pyrimidin-4-yl]piperazin-1-yl]methyl]-1-piperidyl]methyl]-1-piperidyl]-1-oxo-isoindolin-2-yl]piperidine-2,6-dione]
– | – | – | – | < 10 nM | 50 to 70% | < 50% | < 10 nM | C[C@H]1CN(c2cc(-c3n[nH]c4ccc(OC5(C)CC5)cc34)ncn2)CCN1CC1CCN(CCC2CCN(c3ccc4c(c3)C(=O)N(C3CCC(=O)NC3=O)C4=O)CC2)CC1 (stereo partly drawn) [Compound 159, 2-(2,6-dioxo-3-piperidyl)-5-[4-[2-[4-[[(2S)-2-methyl-4-[6-[5-(1-methylcyclopropoxy)-1H-indazol-3-yl]pyrimidin-4-yl]piperazin-1-yl]methyl]-1-piperidyl]ethyl]-1-piperidyl]isoindoline-1,3-dione]
< 10 nM | 50 to 70% | 50 to 70% | < 10 nM | – | – | – | – | CC1(Oc2ccc3[nH]nc(-c4cc(N5CCN(CC(F)(F)C6CCN(CC7CCN(c8ccc9c(c8)C(=O)N(C8CCC(=O)NC8=O)C9=O)CC7)CC6)CC5)ncn4)c3c2)CC1 (stereo not shown) [Compound 53, 5-[4-[[4-[1,1-difluoro-2-[4-[6-[5-(1-methylcyclopropoxy)-1H-indazol-3-yl]pyrimidin-4-yl]piperazin-1-yl]ethyl]-1-piperidyl]methyl]-1-piperidyl]-2-(2,6-dioxo-3-piperidyl)isoindoline-1,3-dione]
50 to 100 nM | < 50% | < 50% | 50 to 100 nM | – | – | – | – | CC1(Oc2ccc3[nH]nc(-c4cc(N5CCC(CN6CCN(CC7CCN(c8ccc9c(c8)C(=O)N(C8CCC(=O)NC8=O)C9=O)CC7)CC6)CC5)ncc4F)c3c2)CC1 (stereo not shown) [Compound 99, 2-(2,6-dioxo-3-piperidyl)-5-[4-[[4-[[1-[5-fluoro-4-[5-(1-methylcyclopropoxy)-1H-indazol-3-yl]-2-pyridyl]-4-piperidyl]methyl]piperazin-1-yl]methyl]-1-piperidyl]isoindoline-1,3-dione]

SMILES | DC50 (G2019S LRRK2; [1]) | Dmax (G2019S LRRK2; [1]) | Dmax (wildtype LRRK2; [2]) | DC50 (wildtype LRRK2; [2]) | DC50 (G2019S LRRK2; [3]) | Dmax (G2019S LRRK2; [3]) | Dmax (wildtype LRRK2; [4]) | DC50 (wildtype LRRK2; [4])
CC1(Oc2ccc3[nH]nc(-c4ccnc(N5CCC(O[C@H]6C[C@H](OC7CCN(c8ccc9c(c8)C(=O)N(C8CCC(=O)NC8=O)C9=O)CC7)C6)CC5)c4)c3c2)CC1 (stereo partly shown) [Compound 127, 2-(2,6-dioxo-3-piperidyl)-5-[4-[3-[[1-[4-[5-(1-methylcyclopropoxy)-1H-indazol-3-yl]-2-pyridyl]-4-piperidyl]oxy]cyclobutoxy]-1-piperidyl]isoindoline-1,3-dione] | 10 to 50 nM | < 50% | < 50% | 10 to 50 nM | – | – | – | –
